This passage reports EC50 and Emax results from patent publication US20230174523A1, “BENZENESULFONAMIDE DERIVATIVES AS TRAP1 MODULATORS AND USES THEREOF” (Amathus Therapeutics, Inc., priority 2020, published 2023).

For this assay, the target named is T1, TRAP1 enzyme (Homo sapiens, UniProt Q12931).
T1 sequence (Q12931 60-704): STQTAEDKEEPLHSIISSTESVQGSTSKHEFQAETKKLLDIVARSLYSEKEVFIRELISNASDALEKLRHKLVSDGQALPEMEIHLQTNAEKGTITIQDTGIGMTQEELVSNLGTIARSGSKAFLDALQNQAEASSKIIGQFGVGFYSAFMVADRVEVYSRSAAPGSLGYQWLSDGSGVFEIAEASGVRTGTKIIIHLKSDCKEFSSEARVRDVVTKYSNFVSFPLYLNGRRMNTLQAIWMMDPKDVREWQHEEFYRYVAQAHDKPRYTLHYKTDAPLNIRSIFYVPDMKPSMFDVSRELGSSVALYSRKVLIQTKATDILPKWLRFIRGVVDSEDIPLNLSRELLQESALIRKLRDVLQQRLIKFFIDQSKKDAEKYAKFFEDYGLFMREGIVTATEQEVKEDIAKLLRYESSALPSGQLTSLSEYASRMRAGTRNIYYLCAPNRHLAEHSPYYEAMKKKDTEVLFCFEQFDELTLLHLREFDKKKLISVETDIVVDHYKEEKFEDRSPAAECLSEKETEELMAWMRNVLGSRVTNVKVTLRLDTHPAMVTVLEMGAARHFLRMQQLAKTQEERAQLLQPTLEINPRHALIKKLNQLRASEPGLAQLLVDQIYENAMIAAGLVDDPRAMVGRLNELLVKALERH
In words: Malachite green phosphate assay of TRAP1 ATPase activity. Format: biochemical. To be noted: for EC50: TRAP1 ATPase activation, 150 nM Trap1, 20 μM ATP, geometric mean, read-out: Malachite Green Fluor DRC: GeoMean EC50; for Emax: read-out: Malachite Green Fluor DRC: Mean Emax. Put shortly:
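Compound (0.78 μM-100 μM) preincubated with 150 nM TRAP1 in 50 mM HEPES pH 7.5, 20 mM KCl, 4 mM MgCl2, 0.05% BSA, 30 min at 37 °C; reaction started with 20 μM ATP, 180 min at 37 °C. Phosphate quantified by malachite green against a standard curve; Emax and EC50 from sigmoidal fits of activation.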

Consider `Cc1ncoc1C(=O)Nc1cccc(S(=O)(=O)N2CCC(C)(C)c3cc(Cl)ccc32)c1` [Compound 517], for which the EC50 fell in the range of 10 to 20 µM and the maximal response (Emax) lay within 160 to 199%.

As to `COc1ccc(NC(=O)c2cnco2)cc1S(=O)(=O)Nc1ccc(Br)cc1` [Compound 91, N-(3-(N-(4-bromophenyl)sulfamoyl)-4-methoxyphenyl) oxazole-5-carboxamide], the EC50 lay within 20 to 100 µM and the Emax lay in the range of 160 to 199%.

As for `COc1ccc(NC(=O)c2cnc(C(F)(F)F)[nH]2)cc1S(=O)(=O)Nc1ccc(C)cc1` [Compound 224], the concentration for a half-maximal effect (EC50) lay within 20 to 100 µM and the Emax lay in the range of 123 to 159%.

With `CN(c1ccc(Br)cc1)S(=O)(=O)c1cc(NC(=O)c2cnc[nH]2)ccc1OCCCCCC[P+](c1ccccc1)(c1ccccc1)c1ccccc1` [Compound 363], the EC50 is under 10 µM and the Emax is over 300%.

`COc1ccc(NC(=O)c2cnc[nH]2)cc1S(=O)(=O)N(CCCCCCO)c1ccc(Br)cc1` [Compound 246, N-(3-(N-(4-bromophenyl)-N-(6-hydroxyhexyl)sulfamoyl)-4-methoxyphenyl)-1H-imidazole-5-carboxamide]: the EC50 was 20 to 100 µM and the Emax lay within 200 to 300%.

As for `CCOC(=O)Cc1ccc(NC(=O)c2ncc(-c3ccccc3)o2)cc1S(=O)(=O)Nc1ccc(Cl)cc1` [Compound 558], the EC50 lay within 10 to 20 µM and the Emax was in the range of 160 to 199%.

For the compound `COc1ccc(NC(=O)c2cnc(C(F)(F)F)[nH]2)cc1S(=O)(=O)Nc1ccccc1C` [Compound 232], the EC50 is under 10 µM and the Emax lay in the range of 123 to 159%.

Regarding `NCCCCCCOc1ccc(NC(=O)c2cnc[nH]2)cc1S(=O)(=O)Nc1ccc(Br)cc1` [Compound 356, N-(4-((6-aminohexyl)oxy)-3-(N-(4-bromophenyl)sulfamoyl)phenyl)-1H-imidazole-4-carboxamide], the EC50 was 20 to 100 µM and the Emax is 200 to 300%.

For `COc1ccc(NC(=O)c2cnc[nH]2)cc1S(=O)(=O)N(CCCCCCBr)c1ccc(Br)cc1` [Compound 251, N-(3-(N-(6-bromohexyl)-N-(4-bromophenyl)sulfamoyl)-4-methoxyphenyl)-1H-imidazole-5-carboxamide], the EC50 was under 10 µM and the Emax was 200 to 300%.

Regarding `CC(C)c1ccc(NC(=O)c2ncc(-c3ccccc3)o2)cc1S(=O)(=O)Nc1ccc(Cl)cc1` [Compound 580], the EC50 was under 10 µM and the Emax is 123 to 159%.

As for `COc1ccc(NC(=O)c2cnccc2C(C)C)cc1S(=O)(=O)Nc1ccc(Br)cc1` [Compound 493], the EC50 is 20 to 100 µM and the Emax was in the range of 160 to 199%.

Take `COc1ccc(NC(=O)c2ccc(-c3ccccc3)o2)cc1S(=O)(=O)Nc1ccc(Cl)cc1` [Compound 499]: the EC50 was in the range of 20 to 100 µM and the Emax is 160 to 199%.

On to `COc1ccc(NC(=O)c2ocnc2C)cc1S(=O)(=O)Nc1ccc(Br)cc1` [Compound 299], for which the EC50 fell in the range of 20 to 100 µM and the Emax was in the range of 160 to 199%.

Take `COc1ccc(NC(=O)c2cnc(C(F)(F)F)[nH]2)cc1S(=O)(=O)N(CCCCN1CCOCC1)c1ccc(Br)cc1` [Compound 430, N-(3-(N-(4-bromophenyl)-N-(4-morpholinobutyl)sulfamoyl)-4-methoxyphenyl)-2-(trifluoromethyl)-1H-imidazole-5-carboxamide]: the EC50 was 20 to 100 µM and the Emax was in the range of 200 to 300%.

On to `CCc1ccc(NC(=O)c2ncc(-c3ccccc3)o2)cc1S(=O)(=O)Nc1ccc(Cl)nc1` [Compound 548], for which the EC50 is under 10 µM and the Emax lay within 123 to 159%.

With `COc1ccc(NC(=O)c2ncco2)cc1S(=O)(=O)Nc1ccc(C)cc1` [Compound 307], the EC50 is 20 to 100 µM and the Emax lay in the range of 160 to 199%.

For the compound `COc1ccc(NC(=O)c2ncco2)cc1S(=O)(=O)Nc1ccc(Br)cc1` [Compound 172], the concentration giving a half-maximal response (EC50) was under 10 µM and the Emax lay within 160 to 199%.

With `CCOC(=O)CCCCCN(c1ccc(Br)cc1)S(=O)(=O)c1cc(NC(=O)c2cnc(C(F)(F)F)[nH]2)ccc1OC` [Compound 263], the concentration giving a half-maximal response (EC50) fell in the range of 10 to 20 µM and the maximal effect (Emax) lay in the range of 160 to 199%.

For `COc1ccc(NC(=O)c2csc(-c3ccccc3)n2)cc1S(=O)(=O)Nc1ccc(Cl)cc1` [Compound 487], the EC50 lay within 10 to 20 µM and the Emax lay in the range of 160 to 199%.

Consider `Cc1ccc(NS(=O)(=O)c2cc(NC(=O)c3cnc(C(F)(F)F)[nH]3)ccc2F)cc1` [Compound 278], for which the 50% effective concentration (EC50) is 10 to 20 µM and the maximum response (Emax) lay in the range of 160 to 199%.

For `COc1ccc(NC(=O)c2cnc(C(F)(F)F)[nH]2)cc1S(=O)(=O)N(CCCCCCO)c1ccc(Br)cc1` [Compound 257], the EC50 lay within 20 to 100 µM and the maximal response (Emax) is over 300%.

Consider `O=C(Nc1ccc(F)c(S(=O)(=O)Nc2c(F)cc(Cl)cc2F)c1)c1ncc(-c2ccccc2)o1` [Compound 503], for which the EC50 was under 10 µM and the maximal effect (Emax) was in the range of 123 to 159%.

In the case of `CCc1ccc(NC(=O)c2cnccc2C)cc1S(=O)(=O)Nc1ccc(C)cc1` [Compound 277], the concentration giving a half-maximal response (EC50) fell in the range of 10 to 20 µM and the maximal response (Emax) fell in the range of 123 to 159%.

As for `COc1ccc(NC(=O)c2cnc(-c3ccccc3)[nH]2)cc1S(=O)(=O)Nc1ccccc1C` [Compound 201], the EC50 was 10 to 20 µM and the Emax fell in the range of 160 to 199%.

`COc1ccc(NC(=O)c2nccs2)cc1S(=O)(=O)Nc1ccc(Br)cc1` [Compound 304]: the EC50 lay within 10 to 20 µM and the maximal effect (Emax) fell in the range of 200 to 300%.

For `COc1ccc(NC(=O)c2cccn2-c2ccccc2)cc1S(=O)(=O)Nc1c(C)cccc1C` [Compound 1042], the 50% effective concentration (EC50) was under 10 µM and the Emax was 160 to 199%.

As for `Cc1ccc(NS(=O)(=O)c2cccc(NC(=O)c3cnc(C(F)(F)F)[nH]3)c2)cc1` [Compound 271], the EC50 lay in the range of 10 to 20 µM and the Emax was in the range of 160 to 199%.

Take `COc1ccc(NC(=O)c2ncc(-c3ccccc3)s2)cc1S(=O)(=O)Nc1c(C)cccc1C` [Compound 449]: the EC50 is 10 to 20 µM and the maximal response (Emax) lay in the range of 123 to 159%.

Take `Cc1ccc(NS(=O)(=O)c2cc(NC(=O)c3ncc(-c4ccccc4)o3)ccc2CC(=O)O)cc1` [Compound 541]: the EC50 is 20 to 100 µM and the Emax was in the range of 200 to 300%.

In the case of `COc1ccc(NC(=O)c2cnc(C(F)(F)F)[nH]2)cc1S(=O)(=O)N(CCCCCC[P+](c1ccccc1)(c1ccccc1)c1ccccc1)c1ccc(Br)cc1` [Compound 260], the concentration giving a half-maximal response (EC50) is under 10 µM and the Emax lay within 160 to 199%.

On to `COc1ccc(NC(=O)c2cnc(-c3ccccc3)[nH]2)cc1S(=O)(=O)N(CCOCCOCCOCCN)c1ccc(Br)cc1` [Compound 526, N-(3-(N-(2-(2-(2-(2-aminoethoxy)ethoxy)ethoxy)ethyl)-N-(4-bromophenyl)sulfamoyl)-4-methoxyphenyl)-2-phenyl-1H-imidazole-5-carboxamide], for which the EC50 is 20 to 100 µM and the Emax is over 300%.

Take `COc1ccc(NC(=O)c2nnc(-c3ccccc3)o2)cc1S(=O)(=O)Nc1ccc(Cl)cc1` [Compound 424]: the EC50 is under 10 µM and the Emax fell in the range of 123 to 159%.

As to `COc1ccc(NC(=O)c2cnc(C(F)(F)F)[nH]2)cc1S(=O)(=O)N(CCCCCN1CCCC1)c1ccc(Br)cc1` [Compound 439], the EC50 lay within 20 to 100 µM and the Emax was in the range of 160 to 199%.

As for `COc1ccc(NC(=O)c2cnc(C(F)(F)F)[nH]2)cc1S(=O)(=O)Nc1ccc(F)cc1C` [Compound 348], the 50% effective concentration (EC50) lay in the range of 20 to 100 µM and the maximal effect (Emax) was 200 to 300%.

For `Cc1ncoc1C(=O)Nc1cccc(S(=O)(=O)N2CCOc3cc(Cl)ccc32)c1` [Compound 479], the half-maximal effective concentration (EC50) lay within 10 to 20 µM and the Emax lay in the range of 160 to 199%.

Turning to `COc1ccc(NC(=O)c2ccccc2N2CCOCC2)cc1S(=O)(=O)Nc1c(C)cccc1C` [Compound 1048], the concentration giving a half-maximal response (EC50) is 10 to 20 µM and the maximal effect (Emax) lay within 160 to 199%.

Turning to `O=C(Nc1cccc(S(=O)(=O)Nc2ccc(Br)cc2)c1)c1cnc(-c2ccccc2)[nH]1` [Compound 169], the 50% effective concentration (EC50) lay in the range of 10 to 20 µM and the maximum response (Emax) is 200 to 300%.

For `CCc1ccc(NC(=O)c2ncco2)cc1S(=O)(=O)Nc1ccc(C(F)(F)F)cc1` [Compound 316], the EC50 is 20 to 100 µM and the maximal response (Emax) is 200 to 300%.

Turning to `COc1ccc(NC(=O)c2cnc(-c3ccccc3)[nH]2)cc1S(=O)(=O)N(CCOCCOCCN)c1ccc(Br)cc1` [Compound 637], the EC50 lay in the range of 20 to 100 µM and the Emax was over 300%.

On to `O=C(Nc1cccc(S(=O)(=O)N2CCOc3cc(Cl)ccc32)c1)c1ncc(-c2ccccc2)o1` [Compound 477], for which the EC50 is under 10 µM and the maximal effect (Emax) lay within 160 to 199%.

For the compound `COc1ccc(NC(=O)c2cnccc2C)cc1S(=O)(=O)Nc1ccccc1C` [Compound 64], the EC50 was in the range of 20 to 100 µM and the Emax was in the range of 160 to 199%.

As for `COc1ccc(NC(=O)c2cnc(-c3ccccc3)o2)cc1S(=O)(=O)Nc1c(C)cccc1C` [Compound 470], the concentration for a half-maximal effect (EC50) was under 10 µM and the Emax fell in the range of 200 to 300%.

Broadly, the EC50 is the concentration at which the effect is half-maximal. The term Emax denotes the maximal effect, on the per cent scale that the assay sets.
